pIC50: −log10 of the molar value.
How the values were obtained:
YAP1:OCT4 = YAP1:OCT4 (Homo sapiens, UniProt P46937); assay: In vitro YAP1:OCT4 ELISA binding assay; conditions: YAP1:OCT4 disruption
Method: Activities of Compounds in the In Vitro YAP1:OCT4 ELISA Binding Assay
Selected compounds were assayed in a YAP1:OCT4 binding assay.

binding of Oct4 to YAP1 = target: T1, binding of Oct4 to YAP1 (Homo sapiens, UniProt P46937); assay: Immunoprecipitation-Western blot of Oct4-YAP1 binding (FIG. 15); type: cell-based; conditions: 5 μM, 72 hours
T1 construct: Lysates were prepared from the cells, and immunoprecipitated with an antibody to OCt4; endogenous in cells; host or cells: A549 and H1650 cells
Method: FIG. 15 is a group of gel images showing peptidomimetic compounds SR2-022, SR2-030, and SR2-033 reduced YAP1-Oct4 interaction as detected by IP-WB. An immunoprecipitation-Western blot experiment was conducted to assess if the indicated compounds could disrupt the binding of Oct4 to YAP1. IP-western blots were conducted using the protocols described in Bora-Singhal et al, 2015. Essentially, cells were treated with 5 μM of the indicated compounds for 72 hours. Lysates were prepared from the cells, and immunoprecipitated with an antibody to OCt4, or a control IgG. Lysates as well as the immunoprecipitates were resoled by a polyacrylamide gel and a western blot was conducted using an antibody to YAP1.

Sequence of YAP1:OCT4 (P46937 whole entry): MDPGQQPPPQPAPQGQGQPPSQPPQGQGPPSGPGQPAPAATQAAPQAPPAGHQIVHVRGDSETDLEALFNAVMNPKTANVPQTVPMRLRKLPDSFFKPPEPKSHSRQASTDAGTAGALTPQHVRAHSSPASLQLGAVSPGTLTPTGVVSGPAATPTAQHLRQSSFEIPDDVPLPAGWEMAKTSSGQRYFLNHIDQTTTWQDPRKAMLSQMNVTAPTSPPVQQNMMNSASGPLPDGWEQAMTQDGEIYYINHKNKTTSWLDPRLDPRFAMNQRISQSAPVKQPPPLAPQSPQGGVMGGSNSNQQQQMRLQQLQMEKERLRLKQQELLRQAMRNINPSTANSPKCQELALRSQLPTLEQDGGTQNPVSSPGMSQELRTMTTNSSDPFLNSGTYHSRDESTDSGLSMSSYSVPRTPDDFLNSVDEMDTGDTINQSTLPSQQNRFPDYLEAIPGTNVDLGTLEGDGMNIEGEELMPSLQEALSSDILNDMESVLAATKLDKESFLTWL
T1 sequence (P46937 whole entry): as above

SMILES	pIC50 (YAP1:OCT4)	YAP1-Oct4 interaction detected by IP-WB (binding of Oct4 to YAP1; A549 cells)	YAP1-Oct4 interaction detected by IP-WB (binding of Oct4 to YAP1; H1650 cells)
COC(=O)[C@H](Cc1ccc(OCc2ccccc2)cc1)NC(=O)CC1CCN(C(=O)OC(C)(C)C)CC1 [SR1-083, tert-Butyl (S)-4-(2-((3-(4-(benzyloxy)phenyl)-1-methoxy-1-oxopropan-2-yl)amino)-2-oxoethyl)piperidine-1-carboxylate]	5.00 to 6.00		
COC(=O)[C@H](Cc1ccc(OCc2ccccc2)cc1)NC(=O)CN1CCN(C(=O)OC(C)(C)C)CC1 [SR1-090, tert-Butyl (S)-4-(2-((3-(4-(benzyloxy)phenyl)-1-methoxy-1-oxopropan-2-yl)amino)-2-oxoethyl)piperazine-1-carboxylate]	< 5.00		
COC(=O)[C@H](Cc1ccc(OCc2ccccc2)cc1)NC(=O)CN1CCN(C(=O)[C@@H]2CCCN2C(=O)OCC2c3ccccc3-c3ccccc32)CC1 [SR1-094, Fmoc-Pro-piperazineacetic acid Tyr(bzl)-OMe]	< 5.00		
COC(=O)[C@H](Cc1ccc(OCc2ccccc2)cc1)NC(=O)CC1CCN(Cc2ccccc2)CC1 [SR1-117, Methyl (S)-3-(4-(benzyloxy)phenyl)-2-(2-(1-benzylpiperidin-4-yl)acetamido)propanoate]	< 5.00		
COC(=O)[C@H](Cc1ccc(OCc2ccccc2)cc1)NC(=O)CC1CCN(C(=O)c2ccccc2)CC1 [SR1-118, Methyl (S)-2-(2-(1-benzoylpiperidin-4-yl)acetamido)-3-(4-(benzyloxy)phenyl)propanoate]	5.00 to 6.00		
COC(=O)[C@H](Cc1ccc(OCc2ccccc2)cc1)NC(=O)CC1CCN(C(=O)CCc2ccccc2)CC1 [SR1-119, Methyl (S)-3-(4-(benzyloxy)phenyl)-2-(2-(1-(3-phenylpropanoyl)piperidin-4-yl)acetamido)propanoate]	5.00 to 6.00		
COC(=O)[C@H](Cc1ccc(OCc2ccccc2)cc1)NC(=O)CC1CCN(C(=O)Cc2ccccc2)CC1 [SR1-122, Methyl (S)-3-(4-(benzyloxy)phenyl)-2-(2-(1-(2-phenylacetyl)piperidin-4-yl)acetamido)-propanoate]	5.00 to 6.00		
CC(C)(C)OC(=O)N1CCC(CC(=O)N[C@@H](Cc2ccc(OCc3ccccc3)cc2)C(=O)O)CC1 [SR1-152, (S)-3-(4-(benzyloxy)phenyl)-2-(2-(1-(tert-butoxycarbonyl)piperidin-4-yl)acetamido)-propanoic acid]	5.00 to 6.00		
CC(C)NC(=O)[C@H](Cc1ccc(OCc2ccccc2)cc1)NC(=O)CC1CCN(C(=O)OC(C)(C)C)CC1 [SR1-167, tert-butyl (S)-4-(2-((3-(4-(benzyloxy)phenyl)-1-(isopropylamino)-1-oxopropan-2-yl)amino)-2-oxoethyl)piperidine-1-carboxylate]	5.00 to 6.00		
COC(=O)[C@H](Cc1ccc(OCc2ccccc2)cc1)NC(=O)CC1CCN(C(=O)CCc2ccc(Cl)cc2)CC1 [SR2-004, Methyl (S)-3-(4-(benzyloxy)phenyl)-2-(2-(1-(3-(4-chlorophenyl)propanoyl)piperidin-4-yl)acetamido)propanoate]	> 5.00		
COC(=O)[C@H](Cc1ccc(OCc2ccccc2)cc1)NC(=O)CC1CCN(C(=O)CCc2ccccc2OC)CC1 [SR2-006, Methyl (S)-3-(4-(benzyloxy)phenyl)-2-(2-(1-(3-(2-methoxyphenyl)propanoyl)piperidin-4-yl)acetamido)propanoate]	5.00 to 6.00		
CCOc1ccc(CCC(=O)N2CCC(CC(=O)N[C@@H](Cc3ccc(OCc4ccccc4)cc3)C(=O)OC)CC2)cc1 [SR2-007, Methyl (S)-3-(4-(benzyloxy)phenyl)-2-(2-(1-(3-(4-ethoxyphenyl)propanoyl)piperidin-4-yl)acetamido)propanoate]	5.00 to 6.00		
COC(=O)[C@H](Cc1ccc(OCc2ccccc2)cc1)NC(=O)CC1CCN(C(=O)CCc2ccc(F)cc2)CC1 [SR2-008, Methyl (S)-3-(4-(benzyloxy)phenyl)-2-(2-(1-(3-(4-fluorophenyl)propanoyl)piperidin-4-yl)acetamido)propanoate]	5.00 to 6.00		
COC(=O)[C@H](Cc1ccc(OCc2ccccc2)cc1)NC(=O)CC1CCN(C(=O)CCc2ccc(C(F)(F)F)cc2)CC1 [SR2-009, Methyl (S)-3-(4-(benzyloxy)phenyl)-2-(2-(1-(3-(4-(trifluoromethyl)phenyl)propanoyl)-piperidin-4-yl)acetamido)propanoate]	5.00 to 6.00		
COC(=O)[C@H](Cc1ccc(OCc2ccccc2)cc1)NC(=O)CC1CCN(C(=O)CCc2cccc(F)c2)CC1 [SR2-010, Methyl (S)-3-(4-(benzyloxy)phenyl)-2-(2-(1-(3-(3-fluorophenyl)propanoyl)piperidin-4-yl)acetamido)propanoate]	> 5.00		
O=C(CC1CCN(C(=O)CCc2ccccc2)CC1)N[C@@H](Cc1ccc(OCc2ccccc2)cc1)C(=O)NC1CC1 [SR2-015, (S)-3-(4-(Benzyloxy)phenyl)-N-cyclopropyl-2-(2-(1-(3-phenylpropanoyl)piperidin-4-yl)acetamido)propanamide]	5.00 to 6.00		
O=C(CC1CCN(C(=O)CCc2ccccc2)CC1)N[C@@H](Cc1ccc(OCc2ccccc2)cc1)C(=O)NC1CCC1 [SR2-016, (S)-3-(4-(Benzyloxy)phenyl)-N-cyclobutyl-2-(2-(1-(3-phenylpropanoyl)piperidin-4-yl)acetamido)propanamide]	5.00 to 6.00		
O=C(CC1CCN(C(=O)CCc2ccccc2)CC1)N[C@@H](Cc1ccc(OCc2ccccc2)cc1)C(=O)NCC1CC1 [SR2-019, (S)-3-(4-(benzyloxy)phenyl)-N-(cyclopropylmethyl)-2-(2-(1-(3-phenylpropanoyl)piperidin-4-yl)acetamido)propanamide]	5.00 to 6.00		
O=C(CC1CCN(C(=O)CCc2ccccc2)CC1)N[C@@H](Cc1ccc(OCc2ccccc2)cc1)C(=O)O [SR2-022, (S)-3-(4-(Benzyloxy)phenyl)-2-(2-(1-(3-phenylpropanoyl)piperidin-4-yl)acetamido)propan-oic acid]	> 5.00	completely abolished	significantly reduced
COC(=O)[C@H](Cc1ccc(OCc2ccccc2)cc1)NC(=O)CC1CCN(C(=O)CC(c2ccccc2)c2ccccc2)CC1 [SR2-029, Methyl (S)-3-(4-(benzyloxy)phenyl)-2-(2-(1-(3,3-diphenylpropanoyl)piperidin-4-yl)acetamido)propanoate]	> 5.00		
COC(=O)[C@H](Cc1ccc(OCc2ccccc2)cc1)NC(=O)CC1CCN(C(=O)CCc2ccc(Cl)c(Cl)c2)CC1 [SR2-030, Methyl (S)-3-(4-(benzyloxy)phenyl)-2-(2-(1-(3-(3,4-dichlorophenyl)propanoyl)piperidin-4-yl)acetamido)propanoate]	> 5.00	completely abolished	significantly reduced
COC(=O)[C@H](Cc1ccc(OCc2ccccc2)cc1)NC(=O)CC1CCN(C(=O)CCc2cccc(Cl)c2)CC1 [SR2-032, Methyl (S)-3-(4-(benzyloxy)phenyl)-2-(2-(1-(3-(3-chlorophenyl)propanoyl)piperidin-4-yl)acetamido)propanoate]	> 5.00		
COC(=O)[C@H](Cc1ccc(OCc2ccccc2)cc1)NC(=O)CC1CCN(C(=O)CCc2cccc(C)c2)CC1 [SR2-036, Methyl (S)-3-(4-(benzyloxy)phenyl)-2-(2-(1-(3-(m-tolyl)propanoyl)piperidin-4-yl)acetamido)propanoate]	5.00 to 6.00		
COC(=O)[C@H](Cc1ccc(OCc2ccccc2)cc1)NC(=O)CC1CCN(C(=O)CCc2cc(Cl)cc(Cl)c2)CC1 [SR2-106, Methyl (S)-3-(4-(benzyloxy)phenyl)-2-(2-(1-(3-(3,5-dichlorophenyl)propanoyl)piperidin-4-yl)acetamido)propanoate]	> 5.00		
COC(=O)[C@H](Cc1ccc(OCc2ccccc2)cc1)NC(=O)CC1CCN(C(=O)CCc2cccc(Br)c2)CC1 [SR2-107, Methyl (S)-3-(4-(benzyloxy)phenyl)-2-(2-(1-(3-(3-bromophenyl)propanoyl)piperidin-4-yl)acetamido)propanoate]	> 5.00		
O=C(CC1CCN(C(=O)CCc2ccc(Cl)c(Cl)c2)CC1)N[C@@H](Cc1ccc(OCc2ccccc2)cc1)C(=O)O [SR2-113, (S)-3-(4-(Benzyloxy)phenyl)-2-(2-(1-(3-(3,4-dichlorophenyl)propanoyl)piperidin-4-yl)acetamido)propanoic acid]	> 5.00		
N#Cc1ccc(CCC(=O)N2CCC(CC(=O)N[C@@H](Cc3ccc(OCc4ccccc4)cc3)C(=O)O)CC2)cc1 [SR2-114, (S)-3-(4-(Benzyloxy)phenyl)-2-(2-(1-(3-(4-cyanophenyl)propanoyl)piperidin-4-yl)acetamido)propanoic acid]	> 5.00		
O=C(CC1CCN(C(=O)CCc2cccc(F)c2)CC1)N[C@@H](Cc1ccc(OCc2ccccc2)cc1)C(=O)O [SR2-117, (S)-3-(4-(Benzyloxy)phenyl)-2-(2-(1-(3-(3-fluorophenyl)propanoyl)piperidin-4-yl)acetamido)propanoic acid]	> 5.00		
O=C(CC1CCN(C(=O)CCc2ccc(F)cc2)CC1)N[C@@H](Cc1ccc(OCc2ccccc2)cc1)C(=O)O [SR2-120, (S)-3-(4-(Benzyloxy)phenyl)-2-(2-(1-(3-(4-fluorophenyl)propanoyl)piperidin-4-yl)acetamido)propanoic acid]	> 5.00		
CCOc1ccc(CCC(=O)N2CCC(CC(=O)N[C@@H](Cc3ccc(OCc4ccccc4)cc3)C(=O)O)CC2)cc1 [SR2-122, (S)-3-(4-(Benzyloxy)phenyl)-2-(2-(1-(3-(4-ethoxyphenyl)propanoyl)piperidin-4-yl)acetamido)propanoic acid]	> 5.00		
